{
  "source": "ChEMBL document CHEMBL1177845",
  "about": "“Efficient synthesis and identification of novel propane-1,3-diamino bridged CCR5 antagonists with variation on the basic center carrier” (Eur J Med Chem, 2010)",
  "key": {"[1]": {"target": "T1, C-C chemokine receptor type 5 (Homo sapiens, UniProt P51681)", "experiment": "Antagonist activity at CCR5 expressed in CHO cells assessed as inhibition of RANTES-stimulated GTPgammaS binding by scintillation proximity assay", "format": "functional, cell-based"}, "[2]": {"target": "T1, C-C chemokine receptor type 5", "experiment": "Antagonist activity at CCR5 expressed in CHO cells assessed as inhibition of RANTES-stimulated GTPgammaS binding at 300 nM by scintillation proximity assay"}, "[3]": {"target": "T1, C-C chemokine receptor type 5", "experiment": "Antagonist activity at CCR5 expressed in CHO cells assessed as inhibition of RANTES-stimulated GTPgammaS binding at 30 nM by scintillation proximity assay"}},
  "data": [
    {"smiles": "COC(=O)C1(Cc2ccccc2)CCN(CC[C@H](NC(=O)C2CCC2)c2cccc3ccccc23)CC1", "values": [
      {"measurement": "IC50", "setting": "[1]", "result": "> 10", "unit": "µM"}
    ]},
    {"smiles": "CC1(NC(=O)Cc2ccc(F)cc2)CCN(CC[C@H](NC(=O)C2CCCCC2)c2cccc(F)c2)CC1", "values": [
      {"measurement": "inhibition", "setting": "[2]", "result": 95, "unit": "%"},
      {"measurement": "inhibition", "setting": "[3]", "result": 31, "unit": "%"}
    ]},
    {"smiles": "Cc1nc2cccnc2n1[C@H]1C[C@H]2CC[C@@H](C1)N2CC[C@H](NC(=O)c1ccc(F)cc1)c1cccc2ccccc12", "values": [
      {"measurement": "IC50", "setting": "[1]", "result": 10, "unit": "µM"}
    ]},
    {"smiles": "CC(=O)N(c1ccc(N2CCN(CC[C@H](NC(=O)C3CCCCC3)c3ccc(C(F)(F)F)cc3)CC2)cc1)C(C)C", "values": [
      {"measurement": "IC50", "setting": "[1]", "result": "> 10", "unit": "µM"}
    ]},
    {"smiles": "O=C(N[C@@H](CCN1CCC(CO)(Cc2ccccc2)CC1)c1ccc(C(F)(F)F)cc1)C1CCC1", "values": [
      {"measurement": "IC50", "setting": "[1]", "result": "> 10", "unit": "µM"}
    ]},
    {"smiles": "CC1(NC(=O)C2CCCCC2)CCN(CC[C@H](NC(=O)C2CCCCC2)c2cccc(F)c2)CC1", "values": [
      {"measurement": "inhibition", "setting": "[2]", "result": 29, "unit": "%"},
      {"measurement": "inhibition", "setting": "[3]", "result": 6, "unit": "%"}
    ]},
    {"smiles": "CC1(NC(=O)c2ccc(C(F)(F)F)cc2)CCN(CC[C@H](NC(=O)C2CCCCC2)c2cccc(F)c2)CC1", "values": [
      {"measurement": "inhibition", "setting": "[2]", "result": 7, "unit": "%"},
      {"measurement": "inhibition", "setting": "[3]", "result": 3, "unit": "%"}
    ]},
    {"smiles": "CC1(NC(=O)Cc2ccc(Cl)cc2)CCN(CC[C@H](NC(=O)C2CCCCC2)c2cccc(F)c2)CC1", "values": [
      {"measurement": "inhibition", "setting": "[2]", "result": 91, "unit": "%"},
      {"measurement": "inhibition", "setting": "[3]", "result": 28, "unit": "%"}
    ]},
    {"smiles": "Cc1nnc(C(C)C)n1[C@H]1C[C@H]2CC[C@@H](C1)N2CC[C@H](NC(=O)COc1ccccc1)c1ccc(C(F)(F)F)cc1", "values": [
      {"measurement": "IC50", "setting": "[1]", "result": 0.253, "unit": "µM"}
    ]},
    {"smiles": "CC1(NC(=O)Cc2ccc(Cl)c(Cl)c2)CCN(CC[C@H](NC(=O)C2CCCCC2)c2cccc(F)c2)CC1", "values": [
      {"measurement": "inhibition", "setting": "[2]", "result": 97, "unit": "%"},
      {"measurement": "inhibition", "setting": "[3]", "result": 36, "unit": "%"}
    ]},
    {"smiles": "CC1(NC(=O)c2cccnc2)CCN(CC[C@H](NC(=O)C2CCCCC2)c2cccc(F)c2)CC1", "values": [
      {"measurement": "inhibition", "setting": "[2]", "result": 44, "unit": "%"},
      {"measurement": "inhibition", "setting": "[3]", "result": 35, "unit": "%"}
    ]},
    {"smiles": "COC(=O)C1(Cc2ccccc2)CCN(CC[C@H](NC(=O)C2CCC2)c2ccc(C(F)(F)F)cc2)CC1", "values": [
      {"measurement": "IC50", "setting": "[1]", "result": 10, "unit": "µM"}
    ]},
    {"smiles": "COc1ccc(C(=O)NC2(C)CCN(CC[C@H](NC(=O)C3CCCCC3)c3cccc(F)c3)CC2)cc1", "values": [
      {"measurement": "inhibition", "setting": "[2]", "result": 33, "unit": "%"},
      {"measurement": "inhibition", "setting": "[3]", "result": 9, "unit": "%"}
    ]},
    {"smiles": "CC(C)N(Cc1ccccc1)c1ccc(N2CCN(CC[C@H](NC(=O)C3CCCCC3)c3ccc(C(F)(F)F)cc3)CC2)cc1", "values": [
      {"measurement": "IC50", "setting": "[1]", "result": "> 10", "unit": "µM"}
    ]},
    {"smiles": "CC1(NC(=O)CC23CC4CC(CC(C4)C2)C3)CCN(CC[C@H](NC(=O)C2CCCCC2)c2cccc(F)c2)CC1", "values": [
      {"measurement": "inhibition", "setting": "[2]", "result": 46, "unit": "%"},
      {"measurement": "inhibition", "setting": "[3]", "result": 21, "unit": "%"}
    ]}
  ]
}
